Assay results: BindingDB's records for doi:10.1111/cbdd.12356 (Peking University, 2014)

Molecular target: T1, Polyunsaturated fatty acid 5-lipoxygenase (Homo sapiens, UniProt P09917)
T1 sequence (P09917 whole entry): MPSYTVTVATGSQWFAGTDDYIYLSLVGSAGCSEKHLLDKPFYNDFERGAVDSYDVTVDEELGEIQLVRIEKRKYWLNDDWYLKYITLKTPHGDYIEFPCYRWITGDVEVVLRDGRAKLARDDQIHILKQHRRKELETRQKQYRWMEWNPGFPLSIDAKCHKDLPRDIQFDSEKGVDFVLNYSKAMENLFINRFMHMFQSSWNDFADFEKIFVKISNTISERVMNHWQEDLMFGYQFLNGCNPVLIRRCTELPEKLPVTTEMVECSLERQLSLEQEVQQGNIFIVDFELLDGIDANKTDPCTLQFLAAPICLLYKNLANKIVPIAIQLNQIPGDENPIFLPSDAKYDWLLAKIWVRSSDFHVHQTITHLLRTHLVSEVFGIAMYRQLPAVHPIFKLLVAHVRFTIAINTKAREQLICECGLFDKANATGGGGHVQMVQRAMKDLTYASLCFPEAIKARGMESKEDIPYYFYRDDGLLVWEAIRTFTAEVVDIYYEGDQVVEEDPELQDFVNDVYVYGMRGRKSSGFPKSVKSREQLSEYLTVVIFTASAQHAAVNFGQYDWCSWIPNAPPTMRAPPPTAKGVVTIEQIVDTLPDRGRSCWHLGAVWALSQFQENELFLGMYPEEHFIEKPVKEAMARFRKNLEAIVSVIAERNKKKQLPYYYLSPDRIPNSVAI
Assay: Cell-Free Assay
Description: The enzyme activity of 5-LOX was determined fluorescence spectrophotometrically by oxidation of the substrate H2DCFDA to the highly fluorescent 2',7'-dichlorofluorescein product during 5-LOX s catalytic reaction . The reactions were initiated by the addition of AA as substrate and then monitored by excitation at 500 nm and emission at 520 nm utilizing a multiwall fluorometer. Fluorescence signals were recorded for 5 min with a kinetics mode program. Inhibition activities were measured as described previously.

Row | IC50 [µM] | SMILES
1 | 21 | O=C(c1[nH]nc2c1CSc1sc(Br)cc1-2)N1CCN(Cc2ccccc2)CC1 [5-(4-benzylpiperazine-1-carbonyl)-11-bromo-8,10-dithia-3,4-diazatricyclo[7.3.0.0 ,⁶]dodeca-1(9),2,5,11-tetraene (7i)]
2 | 5.7 | O=C(c1[nH]nc2c1CSc1sc(Br)cc1-2)N1CCN(c2ccccc2F)CC1 [11-bromo-5-[4-(2-fluorophenyl)piperazine-1-carbonyl]-8,10-dithia-3,4-diazatricyclo[7.3.0.0,6]dodeca-1(9),2,5,11-tetraene (7c)]
3 | 86 | O=C(c1[nH]nc2c1CSc1sc(Br)cc1-2)N1CCN(c2ccc(OC(F)(F)F)cc2)CC1 [11-bromo-5-{4-[4-(trifluoromethoxy)phenyl]piperazine-1-carbonyl}-8,10-dithia-3,4-diazatricyclo[7.3.0.0 ,⁶]dodeca-1(9),2,5,11-tetraene (7e)]
